Data from article PMC2099433, “The binding site for neohesperidin dihydrochalcone at the human sweet taste receptor” (BMC Structural Biology, 2007).

Key:
[1] = tested on: rat Tas1r3 with heptahelical domain of human TAS1R3, coexpressed with rat Tas1r2; test: Calcium response, chimeric receptor; assay type: cell-based; settings: 1 mM NHDC
Text: In order to elucidate the putative binding site for NHDC, we cotransfected mixtures of plasmid DNAs for the rat and human TAS1R2 and TAS1R3 receptor subunits in HEK293T cells stably expressing the chimeric G-protein G16Gust44 and measured cellular calcium responses by fluorometry following bath application of various sweet tasting compounds. […].
Figure 1 Chemical structure and calcium responses elicited by neohesperidin dihydrochalcone. (A) Structure of neohesperidin dihydrochalcone. Numbers denote carbon atom positions. (B) Representative calcium traces elicited upon stimulation with different concentrations of neohesperidin dihydrochalcone (NHDC) in HEK293T-G16Gust44 cells cotransfected with DNA for hTAS1R2/hTAS1R3. […]
The cDNAs for TAS1Rs tagged at the C-terminus with the herpes simplex virus glycoprotein D (HSV) were transiently transfected into HEK293T cells stably expressing the chimeric G-protein subunit G16Gust44 [44] using Lipofectamine 2000 (Invitrogen, Carlsbad, CA) according to the manufacturer's protocol. […] We monitored calcium mobilization following receptor stimulation with sweet tastants by an automated fluorometric imaging plate reader (FLIPR, Molecular Devices, Sunnyvale, CA). […] The obtained calcium signals were corrected for the response of mock transfected cells and normalized to the fluorescence of cells prior to the application of the stimulus using ΔF/F = (F-F0)/F0. […]

[2] = target: T1, hTAS1R2 + hTAS1R3 L782A^6.55 (Homo sapiens, UniProt Q7RTX0+Q8TE23, L782A); parameters: method as in PMID 15668251; settings: mutation L782A^6.55; cited from earlier work
T1 construct: expressed in transfected cells; host or cells: HEK293T cells stably expressing G16Gust44
T1 sequence (Q8TE23 20-839): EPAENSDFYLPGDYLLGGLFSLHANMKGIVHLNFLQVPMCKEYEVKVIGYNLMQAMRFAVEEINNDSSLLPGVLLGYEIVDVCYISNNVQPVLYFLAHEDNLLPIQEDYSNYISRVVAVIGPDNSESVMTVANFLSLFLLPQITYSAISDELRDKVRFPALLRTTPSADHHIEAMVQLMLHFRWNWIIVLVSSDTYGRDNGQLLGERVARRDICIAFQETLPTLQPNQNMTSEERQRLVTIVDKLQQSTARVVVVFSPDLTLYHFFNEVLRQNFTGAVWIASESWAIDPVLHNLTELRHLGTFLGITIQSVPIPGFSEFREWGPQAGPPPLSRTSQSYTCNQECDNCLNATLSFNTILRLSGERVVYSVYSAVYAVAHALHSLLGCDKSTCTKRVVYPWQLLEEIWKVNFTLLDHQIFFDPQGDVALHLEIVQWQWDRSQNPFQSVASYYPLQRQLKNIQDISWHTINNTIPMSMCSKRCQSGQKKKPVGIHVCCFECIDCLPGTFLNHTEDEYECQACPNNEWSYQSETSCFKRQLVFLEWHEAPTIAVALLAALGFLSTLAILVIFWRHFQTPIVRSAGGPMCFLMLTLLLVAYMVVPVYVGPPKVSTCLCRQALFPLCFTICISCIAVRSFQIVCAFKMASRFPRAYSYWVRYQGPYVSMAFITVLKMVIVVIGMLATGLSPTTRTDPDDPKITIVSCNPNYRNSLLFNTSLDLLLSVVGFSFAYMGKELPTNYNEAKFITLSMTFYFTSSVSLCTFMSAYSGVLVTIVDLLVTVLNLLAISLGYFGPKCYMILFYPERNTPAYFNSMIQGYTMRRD
T1 sequence (Q7RTX0 21-852 L782A): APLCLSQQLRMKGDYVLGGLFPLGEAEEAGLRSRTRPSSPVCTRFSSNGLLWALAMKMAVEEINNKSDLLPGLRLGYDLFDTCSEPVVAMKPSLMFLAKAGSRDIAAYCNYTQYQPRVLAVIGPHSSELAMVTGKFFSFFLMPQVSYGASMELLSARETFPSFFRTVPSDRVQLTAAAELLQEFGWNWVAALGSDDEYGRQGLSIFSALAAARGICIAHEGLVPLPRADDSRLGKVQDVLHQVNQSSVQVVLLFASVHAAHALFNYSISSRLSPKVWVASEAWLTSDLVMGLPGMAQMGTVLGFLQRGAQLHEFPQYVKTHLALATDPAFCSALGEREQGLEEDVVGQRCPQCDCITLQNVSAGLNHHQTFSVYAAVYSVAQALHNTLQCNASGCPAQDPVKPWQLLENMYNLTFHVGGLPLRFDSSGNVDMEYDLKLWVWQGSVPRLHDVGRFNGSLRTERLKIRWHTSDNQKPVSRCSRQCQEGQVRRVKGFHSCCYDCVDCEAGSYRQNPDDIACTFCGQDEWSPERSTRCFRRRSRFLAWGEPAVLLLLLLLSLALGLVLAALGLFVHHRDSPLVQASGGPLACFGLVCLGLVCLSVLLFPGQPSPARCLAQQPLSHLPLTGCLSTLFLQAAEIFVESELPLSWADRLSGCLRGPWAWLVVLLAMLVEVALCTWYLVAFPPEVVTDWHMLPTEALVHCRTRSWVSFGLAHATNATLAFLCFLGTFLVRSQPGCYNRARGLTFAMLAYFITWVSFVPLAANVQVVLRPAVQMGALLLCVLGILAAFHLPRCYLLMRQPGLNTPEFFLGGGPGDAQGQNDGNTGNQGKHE

COc1ccc(CCC(=O)c2c(O)cc(O[C@@H]3O[C@H](CO)[C@@H](O)[C@H](O)[C@H]3O[C@@H]3O[C@@H](C)[C@H](O)[C@@H](O)[C@H]3O)cc2O)cc1O [NHDC, neohesperidin dihydrochalcone]
calcium response [1]: sensitive for NHDC

O=S(=O)(O)NC1CCCCC1 [cyclamate]
receptor activation [2]: abolished activation
